Laboratory results published in the supplement of paper PMC11208160.

Experiment: recombinant barcode read abundance after kanamycin selection (control-corrected) (log10(CPM+1)); higher = more efficient recombination; sequences stand for … in AGTGCAGAGAAAATCGGCCAGTTTTCTCTGCCTGCAGTCCGCATGCCGT…ATTTATGCAGCGGACTGCCTTTCTCCCAAAGTGATAAACCGGACAGTATCATGGACCGGTTTTCCCGGTAATCCGTATTTGCAAGGTTGGTTTCACT; site = the 11-nt target
Outline: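 In E. coli, a pooled library matched targets to IS621 bridge RNA target-binding loops and was introduced alongside a donor plasmid. Cells went onto chloramphenicol/ampicillin/kanamycin with 0.1 mM IPTG or onto chloramphenicol/ampicillin LB agar as control, in duplicate. Recombination efficiency, from recombinant-junction barcodes as counts per million, is averaged and control-corrected. It is reported as log10(CPM+1).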

Point of comparison: “GGCTCCCTATGGGTTCTAACCTGTTGCGGAG [GGCTCCCCTCC_LTGcore_TA_RTGcore_CT] (site GGCTCCCCTCC) (LTG core: TA, RTG core: CT)”, “recombinant barcode read abundance (log10)” value 0.233. Against it:
- GCGGGACAGTGGGTTCTAACCTGTTGCCTAG [GCGGGACCTAG_LTGcore_AG_RTGcore_CT] (site GCGGGACCTAG) (LTG core: AG, RTG core: CT) — within 0.2 log units, 0.28
- GCGGGACCATGGGTTCTAACCTGTTGCCTAG [GCGGGACCTAG_LTGcore_CA_RTGcore_CT] (site GCGGGACCTAG) (LTG core: CA, RTG core: CT) — higher, 0.909
- GCGGGACCTTGGGTTCTAACCTGTTGCCTCC [GCGGGACCTAG_LTGcore_CT_RTGcore_GG] (site GCGGGACCTAG) (LTG core: CT, RTG core: GG) — higher, 1.24
- GCGGGACCTTGGGTTCTAACCTGTTGCCTCT [GCGGGACCTAG_LTGcore_CT_RTGcore_AG] (site GCGGGACCTAG) (LTG core: CT, RTG core: AG) — higher, 0.713
- GCGGGACCTTGGGTTCTAACCTGTTGCCTGT [GCGGGACCTAG_LTGcore_CT_RTGcore_AC] (site GCGGGACCTAG) (LTG core: CT, RTG core: AC) — higher, 1.21
- GCGGGACCTTGGGTTCTAACCTGTTGCCTTT [GCGGGACCTAG_LTGcore_CT_RTGcore_AA] (site GCGGGACCTAG) (LTG core: CT, RTG core: AA) — higher, 0.927
- GCGGGACGCTGGGTTCTAACCTGTTGCCTAG [GCGGGACCTAG_LTGcore_GC_RTGcore_CT] (site GCGGGACCTAG) (LTG core: GC, RTG core: CT) — within 0.2 log units, 0.137
- GCGGGACTATGGGTTCTAACCTGTTGCCTAG [GCGGGACCTAG_LTGcore_TA_RTGcore_CT] (site GCGGGACCTAG) (LTG core: TA, RTG core: CT) — within 0.2 log units, 0.11
- GCGGGACTCTGGGTTCTAACCTGTTGCCTAG [GCGGGACCTAG_LTGcore_TC_RTGcore_CT] (site GCGGGACCTAG) (LTG core: TC, RTG core: CT) — higher, 0.467
- GCGGGACTCTGGGTTCTAACCTGTTGCCTGA [GCGGGACCTAG_LTGcore_TC_RTGcore_TC] (site GCGGGACCTAG) (LTG core: TC, RTG core: TC) — within 0.2 log units, 0.135
- GCGGGACTGTGGGTTCTAACCTGTTGCCTCA [GCGGGACCTAG_LTGcore_TG_RTGcore_TG] (site GCGGGACCTAG) (LTG core: TG, RTG core: TG) — within 0.2 log units, 0.226
- GGACACCAATGGGTTCTAACCTGTTGCCTTT [GGACACCCTAG_LTGcore_AA_RTGcore_AA] (site GGACACCCTAG) (LTG core: AA, RTG core: AA) — within 0.2 log units, 0.364
- GGACACCCTTGGGTTCTAACCTGTTGCCTGC [GGACACCCTAG_LTGcore_CT_RTGcore_GC] (site GGACACCCTAG) (LTG core: CT, RTG core: GC) — higher, 1.55
- GGACACCGCTGGGTTCTAACCTGTTGCCTAG [GGACACCCTAG_LTGcore_GC_RTGcore_CT] (site GGACACCCTAG) (LTG core: GC, RTG core: CT) — within 0.2 log units, 0.105
- GGACACCTCTGGGTTCTAACCTGTTGCCTGA [GGACACCCTAG_LTGcore_TC_RTGcore_TC] (site GGACACCCTAG) (LTG core: TC, RTG core: TC) — within 0.2 log units, 0.149
- GGACACCTGTGGGTTCTAACCTGTTGCCTAG [GGACACCCTAG_LTGcore_TG_RTGcore_CT] (site GGACACCCTAG) (LTG core: TG, RTG core: CT) — within 0.2 log units, 0.0753
- GGACACCTGTGGGTTCTAACCTGTTGCCTCA [GGACACCCTAG_LTGcore_TG_RTGcore_TG] (site GGACACCCTAG) (LTG core: TG, RTG core: TG) — within 0.2 log units, 0.15
- GGACACCTTTGGGTTCTAACCTGTTGCCTAA [GGACACCCTAG_LTGcore_TT_RTGcore_TT] (site GGACACCCTAG) (LTG core: TT, RTG core: TT) — within 0.2 log units, 0.175
- GGACACCTTTGGGTTCTAACCTGTTGCCTAG [GGACACCCTAG_LTGcore_TT_RTGcore_CT] (site GGACACCCTAG) (LTG core: TT, RTG core: CT) — within 0.2 log units, 0.0765
- GGCTCCCATTGGGTTCTAACCTGTTGCGGAG [GGCTCCCCTCC_LTGcore_AT_RTGcore_CT] (site GGCTCCCCTCC) (LTG core: AT, RTG core: CT) — within 0.2 log units, 0.157
- GGCTCCCCTTGGGTTCTAACCTGTTGCGGAC [GGCTCCCCTCC_LTGcore_CT_RTGcore_GT] (site GGCTCCCCTCC) (LTG core: CT, RTG core: GT) — within 0.2 log units, 0.0822
- GGCTCCCCTTGGGTTCTAACCTGTTGCGGGA [GGCTCCCCTCC_LTGcore_CT_RTGcore_TC] (site GGCTCCCCTCC) (LTG core: CT, RTG core: TC) — within 0.2 log units, 0.302
- GGCTCCCCTTGGGTTCTAACCTGTTGCGGGC [GGCTCCCCTCC_LTGcore_CT_RTGcore_GC] (site GGCTCCCCTCC) (LTG core: CT, RTG core: GC) — within 0.2 log units, 0.112
- GGCTCCCGCTGGGTTCTAACCTGTTGCGGAG [GGCTCCCCTCC_LTGcore_GC_RTGcore_CT] (site GGCTCCCCTCC) (LTG core: GC, RTG core: CT) — lower, 0.0135
- GGCTCCCGGTGGGTTCTAACCTGTTGCGGAG [GGCTCCCCTCC_LTGcore_GG_RTGcore_CT] (site GGCTCCCCTCC) (LTG core: GG, RTG core: CT) — within 0.2 log units, 0.0853
- GGGAGCCACTGGGTTCTAACCTGTTGCTGGT [GGGAGCCCTCA_LTGcore_AC_RTGcore_AC] (site GGGAGCCCTCA) (LTG core: AC, RTG core: AC) — within 0.2 log units, 0.222
- GGGAGCCCCTGGGTTCTAACCTGTTGCTGGG [GGGAGCCCTCA_LTGcore_CC_RTGcore_CC] (site GGGAGCCCTCA) (LTG core: CC, RTG core: CC) — within 0.2 log units, 0.0526
- GGGAGCCCTTGGGTTCTAACCTGTTGCTGAC [GGGAGCCCTCA_LTGcore_CT_RTGcore_GT] (site GGGAGCCCTCA) (LTG core: CT, RTG core: GT) — higher, 1.06
- GGGAGCCCTTGGGTTCTAACCTGTTGCTGGA [GGGAGCCCTCA_LTGcore_CT_RTGcore_TC] (site GGGAGCCCTCA) (LTG core: CT, RTG core: TC) — within 0.2 log units, 0.172
- GGGAGCCCTTGGGTTCTAACCTGTTGCTGTA [GGGAGCCCTCA_LTGcore_CT_RTGcore_TA] (site GGGAGCCCTCA) (LTG core: CT, RTG core: TA) — lower, 0.029
- GGGAGCCGTTGGGTTCTAACCTGTTGCTGAC [GGGAGCCCTCA_LTGcore_GT_RTGcore_GT] (site GGGAGCCCTCA) (LTG core: GT, RTG core: GT) — within 0.2 log units, 0.168
- GGGAGCCGTTGGGTTCTAACCTGTTGCTGAG [GGGAGCCCTCA_LTGcore_GT_RTGcore_CT] (site GGGAGCCCTCA) (LTG core: GT, RTG core: CT) — within 0.2 log units, 0.186
- GGGAGCCTCTGGGTTCTAACCTGTTGCTGAG [GGGAGCCCTCA_LTGcore_TC_RTGcore_CT] (site GGGAGCCCTCA) (LTG core: TC, RTG core: CT) — within 0.2 log units, 0.0348
- GGGAGCCTCTGGGTTCTAACCTGTTGCTGGA [GGGAGCCCTCA_LTGcore_TC_RTGcore_TC] (site GGGAGCCCTCA) (LTG core: TC, RTG core: TC) — within 0.2 log units, 0.0883
- GGGAGCCTTTGGGTTCTAACCTGTTGCTGAA [GGGAGCCCTCA_LTGcore_TT_RTGcore_TT] (site GGGAGCCCTCA) (LTG core: TT, RTG core: TT) — within 0.2 log units, 0.11
- GGGCGGACTTGGGTTCTAACCTGTTGCGGAG [GGGCGGACTCC_LTGcore_CT_RTGcore_CT] (site GGGCGGACTCC) (LTG core: CT, RTG core: CT) — higher, 2.08
- GGGCGGACTTGGGTTCTAACCTGTTGCGGCC [GGGCGGACTCC_LTGcore_CT_RTGcore_GG] (site GGGCGGACTCC) (LTG core: CT, RTG core: GG) — within 0.2 log units, 0.0677
- GGGCGGACTTGGGTTCTAACCTGTTGCGGCG [GGGCGGACTCC_LTGcore_CT_RTGcore_CG] (site GGGCGGACTCC) (LTG core: CT, RTG core: CG) — within 0.2 log units, 0.232
- GGGCGGACTTGGGTTCTAACCTGTTGCGGGG [GGGCGGACTCC_LTGcore_CT_RTGcore_CC] (site GGGCGGACTCC) (LTG core: CT, RTG core: CC) — within 0.2 log units, 0.212
- GGGCGGACTTGGGTTCTAACCTGTTGCGGTA [GGGCGGACTCC_LTGcore_CT_RTGcore_TA] (site GGGCGGACTCC) (LTG core: CT, RTG core: TA) — within 0.2 log units, 0.0865
- GGGCGGACTTGGGTTCTAACCTGTTGCGGTT [GGGCGGACTCC_LTGcore_CT_RTGcore_AA] (site GGGCGGACTCC) (LTG core: CT, RTG core: AA) — higher, 0.765
- GGGCGGAGATGGGTTCTAACCTGTTGCGGTC [GGGCGGACTCC_LTGcore_GA_RTGcore_GA] (site GGGCGGACTCC) (LTG core: GA, RTG core: GA) — within 0.2 log units, 0.235
- GGGCGGATCTGGGTTCTAACCTGTTGCGGAG [GGGCGGACTCC_LTGcore_TC_RTGcore_CT] (site GGGCGGACTCC) (LTG core: TC, RTG core: CT) — higher, 0.798
- GGGCGGATTTGGGTTCTAACCTGTTGCGGAA [GGGCGGACTCC_LTGcore_TT_RTGcore_TT] (site GGGCGGACTCC) (LTG core: TT, RTG core: TT) — within 0.2 log units, 0.223
